What all share (format): cell-based
Test [1] has as its system Deoxynucleoside Triphosphate (dNTP) Pools in Uninfected Vero Cells. The experiment in a line: Deoxynucleoside triphosphate (dNTP) pools in uninfected (mock-infected) Vero cells. The protocol: Vero cells were treated with MMdCyd, H4 dUrd and MMdCyd+H4 dUrd. The cells were then assayed for the presence of deoxynucleoside triphosphates. Untreated Vero cells were also assayed for the presence of deoxynucleoside triphosphates, to provide a control.
^a Cells were mock infected for one hour. Different treatments were
^b Values are means of at least two assays of triplicate cell
(§1) Vero cells and HSV-infected Vero cells were treated with dGUO and dGUO and H4 dUrd. The cells were then assayed for the presence of deoxynucleoside triphosphates. Untreated Vero cells were also assayed for the presence of deoxynucleoside triphophate to provide a control.
Vero cells were treated with N-methyl-MMdCyd. The cells were then assayed for dNTP pools.

In test [2] the test system is Deoxynucleoside Triphosphate (dNTP) Pools in Vero Cells Infected with Herpes Simplex Virus Type 1. The experiment in a line: Deoxynucleoside triphosphate (dNTP) pools in HSV-1 infected Vero cells. The settings on record: Table 16, HSV-1 KOS infected Vero, treatment 7 hours, ± S.E. The protocol: Example 9 was repeated, except that the Vero cells subjected to the treatment had all been infected with HSV-1 KOS strain prior to the treatment.
^a Cells were infected with 10 PFU/cell of HSV1 KOS strain for one
hour. Treatments were given for seven hours.
^a Cells were infected with 10 PFU/cell of HSV1, KOS strain after
^b H4 dUrd in MEM was added immediately after adsorption and
^c H4 dUrd in MEM was added immediately after adsorption and
as §1
^c Cells were infected with 10 PFU/cell of HSV1 strain KOS for one

For test [3], the system named is Herpes simplex virus type 1 (HSV-1). The experiment in a line: Antiviral activity against HSV-1, viral plaque reduction (ED50). Particulars: for reversal of antiviral activity of MMdCyd, order of potency: FIGS. 4 to 6. The protocol:
(§2) Infected cells were treated with different concentrations of MMdCyd and the concentration required to reduce viral plaque formation by 50%, i.e. ED50, was determined.
(§3) ^a ED50 : Concentration required to reduce viral plaque formatio
Vero cells were infected with the KOS strain of HSV-1. The compound of compounds indicated in Table 2, below, and are shown graphically in FIGS. 1, (H4 dUrd) and 2 (H4 Urd).
^a Antiviral assays were carried out using Vero cells. All compounds
were added immediately after virus infection.
(§4) The antiviral activity of MMdCyd in the presence of H4 dUrd was determined against several strains of HSV-1 and HSV-2.
Vero cells were infected with HSV-1, strain 76 and treated with MMdCyd at different times post virus infection.
The antiviral activity, ^a cyctotoxicity* and antiviral indices of MMdCyd in the presence of H4 dUrd, dGuo and H4 dUrd+dGuo were determined.
^a Antiviral assays were carried out using Vero cells. Compounds were
added immediately after virus infection. Virus HSV1, strains KOS and 76;
KOS, virus input = 50 PFU

For test [4] the test system is unchanged. The description is as above. Particulars: FIG. 13; HSV-1 KOS and 76, Vero, 20 PFU.
The subject of test [5] is Herpes simplex virus type 2 (HSV-2). The test is described as follows: Antiviral activity against HSV-2, viral plaque reduction (ED50). Particulars: HSV-2. The protocol: as §2, §3, §4
^a Antiviral assays were carried out using Vero cells. Virus input 50
^b ED50 : Concentration required to reduce viral plaque formatio

[6] abbreviates: Table 16, uninfected Vero, treatment 7 hours, ± S.E.

Here are results for ten compounds from patent US4990499A, “Anti-herpes simplex virus activity of 5-alkoxymethyl-2'-deoxycytidimes and their 5-monophosphates” (priority 1989, dated 1991).

Regarding `CNc1nc(=O)n([C@H]2C[C@H](O)[C@@H](CO)O2)cc1COC` [N-Me-MMdCyd, 5-methoxymethyl-N4-methyl-2'-deoxycytidine], in test [1] (setting [6]), the dATP pool was 32.2 ± 2.5 .rho. moles/10^6 cells, the dCTP pool is given as 17.3 ± 1.32 .rho. moles/10^6 cells, the dGTP pool is given as 36.3 ± 1.67 .rho. moles/10^6 cells and the dTTP pool is given as 38.6 ± 1.22 .rho. moles/10^6 cells. Also, the “effect on dNTP pools” value in test [1] (Vero cells) was “did not cause perturbation of dNTP pools to any significant degree”. Further, in test [2], the dATP pool was 7.4 ± 0.4 .rho. moles/10^6 cells, the dCTP pool was 18 ± 1.08 .rho. moles/10^6 cells, the dGTP pool is 58.9 ± 2.22 .rho. moles/10^6 cells and the dTTP pool is given as 419 ± 10.6 .rho. moles/10^6 cells. The EC50 (usually the concentration needed to bring the measured effect to its halfway point) in test [3] was over 1800 µM. Besides, in test [3] (summary statement), the antiherpes activity entry was “completely devoid of antiherpes activity”. For the same compound, the antiviral activity entry in test [3] (up to 1796 μM) is listed as “devoid of antiviral activity”.

Consider `Nc1ccn([C@H]2C[C@H](O)[C@@H](CO)O2)c(=O)n1` [deoxycytidine, 2'-deoxycytidine, reference compound], for which, in test [3], the “reversal of antiviral activity of MMdCyd, order of potency” value (“reversal of antiviral activity of MMdCyd” for short) is listed as “deoxythymidine>deoxyuridine>deoxycytidine”. Also, the “effect on dose-response curve of MMdCyd” value in test [3] (equimolar concentrations, FIG. 5) is “parallel upward shift”.

Take `O=c1ccn([C@H]2C[C@H](O)[C@@H](CO)O2)c(=O)[nH]1` [deoxyuridine, 2'-deoxyuridine, reference compound]: the “reversal of antiviral activity of MMdCyd” value in test [3] is “deoxythymidine>deoxyuridine>deoxycytidine”.

Consider `O=C1NC(O)CCN1[C@@H]1O[C@H](CO)[C@@H](O)[C@H]1O` (stereo partly drawn) [H4 Urd, tetrahydrouridine, reference compound], for which the “potentiation of the activity of MMdCyd (fold)” value in test [3] (H4 Urd with MMdCyd) was “approximately 2 fold”.

In turn, `COCc1cn([C@H]2C[C@H](O)[C@@H](COP(=O)(O)O)O2)c(=O)nc1N` [MMdCMP, 5-methoxymethyl-2'-deoxycytidine monophosphate] registered an EC50 in test [3] of 10 to 14 µM. The antiviral activity result in test [3] (HSV-1) is “potent inhibitor of HSV-1”.

Consider `Nc1ncnc2c1ncn2[C@H]1C[C@H](O)[C@@H](CO)O1` [Deoxyadenosine, reference compound], for which the “effect on antiviral activity of MMdCyd” value in test [4] is reported as “no effect on antiherpes activity of MMdCyd”.

As to `CNc1nc(=O)n([C@H]2C[C@H](O)[C@@H](COP(=O)(O)O)O2)cc1COC` [N-Me-MMdCMP, 5-Methoxymethyl-N^4-methyl-2'-deoxycytidine-5'-monophosphate], the EC50 in test [3] was over 1800 µM. For the same compound, the antiviral activity result in test [3] (HSV-1) and in test [5] was “completely inert” in each case.

In turn, `COCc1cn([C@H]2C[C@H](OC(C)=O)[C@@H](COC(C)=O)O2)c(=O)nc1N` [Di-AC-MMdCyd, 5-methoxymethyl-3',5'-diacetyl-2'-deoxycytidine] had an EC50 in test [3] of 535 µM. Also, in test [3] (vs MMdCyd, cell culture), the “potency against HSV-1 relative to parent compound (times lower)” value is “approximately 20 times”.

Regarding `Cc1cn([C@H]2C[C@H](O)[C@@H](CO)O2)c(=O)[nH]c1=O` [deoxythymidine, 2'-deoxyribosylthymidine (thymidine), reference compound], the “reversal of antiviral activity of MMdCyd” value in test [3] is reported as “deoxythymidine>deoxyuridine>deoxycytidine”.

Regarding `Cc1cn([C@H]2C[C@H](O)[C@@H](CO)O2)c(=O)nc1N` [MedCyd, 5-methyl-2'-deoxycytidine, reference compound], in test [3], the EC50 is over 530 µM. Further, the antiviral activity result in test [3] (up to 128 μg/ml, HSV-1) is recorded as “devoid of activity”.
